# Source: patent US20170306042A1, “IMMUNOGENIC MODULATION BY ENDOCRINE DEPRIVATION THERAPY IMPROVES SENSITIVITY OF TUMOR CELLS TO IMMUNE MEDIATED LYSIS” (The United States of America, as represented by the …, priority 2014, published 2017)
# Key:
# [1] = tested on: LNCaP cells; test: PSA-specific CD8+ T-cell killing, LNCaP targets; details: 10 μM, 48 hours, E:T 30:1, P<0.01
# Description: (§1) At specific time points, cells were harvested and counted. Equal numbers of effector target cells from all treatment were plated with respective cytotoxic T-cells.
# [2] = tested on: LNCaP control-shRNA cells; test: CEA-specific CTL lysis assay, LNCaP control-shRNA targets; details: 10 μM, 48 hours, E:T 30:1, P<0.05
# Description: as §1
# [3] = tested on: LNCaP cells; test: Apoptosis PCR array (96 genes) in LNCaP cells; type: cell-based, human
# Description: The properties of ADT that induce immunogenic modulation and sensitize prostate tumor cells to immune-mediated attack are novel and have not been previously described. It was hypothesized that modulation of apoptotic genes might be part of the mechanism of action of ADT-induced CTL sensitization. […] In particular, gene expression was assessed using an apoptosis PCR array (SA Biosciences, Valencia, Calif.) as per the manufacturer's instructions. RT-PCR was performed on the 7300 Real-Time PCR System (Applied Biosystems, Carlsbad, Calif.). Where indicated, values were calculated as expression relative to GAPDH, as previously described (Ardiani et al., Cancer Res., 74(7): 1945-1957 (2014))
# [4] = tested on: NAIP; test: NAIP immunohistochemistry in LNCaP xenografts in nude mice; type: in vivo; details: 10 mg/day, 7 days
# Description: To examine the reduced expression of NAIP in vivo, either LNCaP or PC-3 cells were transplanted into […] nude mice (Charles River, Wilmington, Mass.) (s.c. in the right flank with 5×10^6 LNCaP or PC-3 prostate tumor cells). […] After 7 days of treatment, tumors were subjected to immunohistochemistry staining to detect the presence and intensity of NAIP expression. Specifically, NAIP expression was detected via immunohistochemistry using a rabbit polyclonal antibody to NAIP (Novus Bio, Littleton, Colo.) according to the manufacturer's instructions. Entire slides were digitally scanned by an Aperio ScanScope CS system and analyzed by Aperio ImageScope Viewer software (Aperio Technologies Inc., Vista, Calif.). Statistical analysis was performed using 3-7 murine tumors, each prepared as a complete stained tumor section. Positive tumor regions were determined using the Positive Pixel Count v9 algorithm. Negative controls included omission of primary antibody with PBS and matched rabbit isotype antibody. In all cases, necrotic areas of tumor were excluded from analysis.
# [5] = tested on: ZR75-1 cells; details: 10 μM, 48 hours
# Description: (§2) After 48 hours, cells were harvested and stained with the following antibodies: HLA A2-PE-Cy7, MUC-1-FITC, CD54-BV421, CD95-FITC (BD Biosciences, San Jose, Calif.), CEA-APC (Miltenyi Biotec, Auburn, Calif.), TRAIL receptor 1 and TRAIL receptor 2 (R & D Systems, Minneapolis, Minn.). LIVE/DEAD Fixable Violet Dead Cell Stain (Life Technologies, Grand Island, N.Y.) was used to determine cell viability. Cells were incubated with the antibodies for 30 min at 4° C., acquired on a FACS Verse flow cytometer (Becton Dickinson, Franklin Lakes, N.J.), and analyzed using FlowJo software (TreeStar, Inc., Ashland, Oreg.).
# [6] = tested on: LNCaP control-shRNA (AR+, HLA-A2) cells; details: 10 μM; P<0.01
# [7] = tested on: LNCaP cells; test: CEA-specific CTL lysis assay, LNCaP targets; type: cell-based, human; details: 10 μM, 48 hours, E:T 30:1, P<0.0001
# Description: To evaluate the importance of DAPK1, DAPK1 siRNA was used to reduce the expression of DAPK1.
# [8] = tested on: LNCaP cells; test: CEA- or PSA-specific CD8+ T-cell killing, LNCaP targets; type: cell-based, human; details: 10 μM, 48 hours, P<0.01
# [9] = tested on: LNCaP (AR+, HLA-A2) cells; test: Cell proliferation and viability by trypan blue exclusion, LNCaP; type: cell-based, human; details: 10 μM
# Description: Cells were harvested 24, 48, or 72 h after exposure, and the total number of adherent viable cells was determined by trypan blue exclusion. Viability was confirmed by 7AAD staining.
# [10] = tested on: OPG; test: ELISA of secreted OPG, MDA MB 231 cells; type: cell-based, human; details: 10 μM, 48 hours, P<0.05
# Description: ELISA was performed on combined supernatant samples taken following 24 and 48 hours of treatment.
# OPG expression was inhibited in MDA MB 231 cells using siRNA duplexes targeting OPG sequences and control siRNA duplexes (Origene, Rockville, Md.). MDA-MB-231 cells were transfected with OPG or control siRNA according to the manufacturer's instructions. […] Forty-eight hours post siRNA transfection, the MDA MB 231 cells were also used as target cells in CEA-specific CTL and TRAIL-mediated lysis assays as described.
# [11] = tested on: MDA MB 231 (ER−AR−) cells; test: Apoptosis PCR array (90 genes) in MDA MB 231 cells; type: cell-based, human; details: 24 hours, qRT-PCR
# Description: Total RNA was isolated from the cells using the RNeasy Extraction Kit (Qiagen, Valencia, Calif.). RNA was reverse-transcribed into cDNA using the Advantage RT-for-PCR Kit (Clontech, Mountain View, Calif.). cDNA (10 ng) was used in a quantitative real-time (RT) PCR reaction using probes specific for AR (Hs00901571_m1) and GAPDH (4326317E). AR mRNA expression level was calculated as expression relative to GAPDH. […] Total RNA was isolated from the cells using the RNeasy Extraction Kit. RNA was reverse-transcribed into cDNA using the RT^2 First Strand Kit (SA Biosciences, Valencia, Calif.). Relative mRNA expression levels of 90 genes involved in apoptosis were assessed using an apoptosis PCR array (SA Biosciences) per the manufacturer's instructions. RT-PCR was performed on the 7300 Real-Time PCR System (Applied Biosystems, Carlsbad, Calif.).
# OPG is a decoy receptor for receptor activator of nuclear factor kappa-B ligand (RANKL) which inhibits RANKL activation of nuclear factor kappa-B induced apoptosis.
# [12] = tested on: BT549 cells; details: 10 μM, 48 hours
# Description: as §2
# [13] = apoptosis PCR array, negative = down-regulated
substance,measurement,setting,value
enzalutamide,sensitivity to PSA-specific T-cell killing,[1],significantly improved their sensitivity
same,sensitivity to CEA-specific CTL-mediated lysis,[2],significantly enhanced the sensitivity
same,CASP1 (Caspase 1) gene expression change,[3]; [13],−2.17 fold
same,CASP5 gene expression change,[3]; [13],−3.50 fold
same,CASP8 gene expression change,[3]; [13],−2.96 fold
same,CD27 gene expression change,[3]; [13],−2.26 fold
same,DAPK1 gene expression change,[3]; [13],−6.53 fold
same,HRK gene expression change,[3]; [13],−2.86 fold
same,NAIP gene expression change,[3]; [13],−13.90 fold
same,TNFRSF25 (DR3) gene expression change,[3]; [13],−3.70 fold
same,TNFSF8 gene expression change,[3]; [13],−3.50 fold
same,DAPK1 down-regulated,[3]; rounded from Table 1,6.5 fold
same,NAIP down-regulated,[3]; rounded from Table 1,14 fold
same,NAIP staining in LNCaP tumors vs untreated mice,[4]; immunohistochemistry,much less intense staining
same,decrease of overall population of tumor cells expressing NAIP,"[4]; LNCaP xenografts, P<0.01",1.5 fold
same,increase in tumor area that did not express NAIP,"[4]; LNCaP xenografts, P<0.01",2.2 fold
same,CEA mean fluorescence intensity,[5],4690
same,CEA percent positivity,[5],28.9%
same,Fas mean fluorescence intensity,[5],1611
same,Fas percent positivity,[5],26.8%
same,HLA A2 mean fluorescence intensity,[5],3047
same,HLA A2 percent positivity,[5],10.0%
same,ICAM-1 mean fluorescence intensity,[5],2473
same,ICAM-1 percent positivity,[5],26.1%
same,MUC-1 mean fluorescence intensity,[5],2203
same,MUC-1 percent positivity,[5],37.1%
same,Trail R1 mean fluorescence intensity,[5],4325
same,Trail R1 percent positivity,[5],7.9%
same,Trail R2 mean fluorescence intensity,[5],4502
same,proliferation of LNCaP control-shRNA,[6],significantly inhibited the proliferation
same,sensitivity to CEA-specific CD8+ T-cell killing,[7],significantly enhanced the sensitivity
same,sensitivity to T-cell killing,[8],significantly improved the cells' sensitivity
same,viability of LNCaP cells,[9]; trypan blue exclusion after 3 days of drug exposure,Neither enzalutamide nor abiraterone affected the viability
same,growth / proliferation of LNCaP cells,"[9]; vs vehicle (DMSO), P<0.01",significantly inhibited the growth
same,amount of secreted OPG,[10],reduced the amount of OPG
same,osteoprotegerin (OPG) gene down-regulated,[11],~25 fold
same,cell-surface markers with increased expression,[12]; BT549 (ER−AR+),upregulated the expression of ICAM-1 as well as Trail receptors 1 and 2 and the tumor associated antigen CEA
same,CEA mean fluorescence intensity,[12]; BT549,3443
same,CEA percent positivity,[12]; BT549,15.3%
same,Fas mean fluorescence intensity,[12]; BT549,566
same,Fas percent positivity,[12]; BT549,15.8%
same,HLA A2 mean fluorescence intensity,[12]; BT549,2532
same,HLA A2 percent positivity,[12]; BT549,87.6%
same,ICAM-1 mean fluorescence intensity,[12]; BT549,6239
same,ICAM-1 percent positivity,[12]; BT549,26.1%
same,MUC-1 mean fluorescence intensity,[12]; BT549,930
same,MUC-1 percent positivity,[12]; BT549,25.5%
same,Trail R1 mean fluorescence intensity,[12]; BT549,562
same,Trail R1 percent positivity,[12]; BT549,23.6%
